{"source": "patent US12275706B2", "about": "“Malate salt of N-(4-{[6,7-bis(methyloxy) quinolin-4-yl]oxy}phenyl)-N′-(4-fluorophenyl)cyclopropane-1,1-dicarboxamide, and crystalline forms thereof for the treatment of cancer” (Exelixis, Inc., priority 2009, dated 2025)", "key": {"[1]": {"assay": "Salt screen: salt formation, crystallinity, hygroscopicity and other data", "conditions": "Table 1"}, "[2]": {"assay": "Storage stability at controlled temperature/relative humidity", "assay_type": "physicochemical"}, "[3]": {"assay": "Water solubility of free base and salts (salt screen)", "conditions": "for Solubility: water, 10 mg solids per mL water"}, "[4]": {"assay": "Solid state stability on exposure to high humidity and temperature", "assay_type": "physicochemical", "excerpt": "Other solid state properties which may be used to characterize the crystalline N-1 forms of Compounds (I) and (II) are shown in the figures and discussed in the examples below."}, "[5]": {"assay": "Moisture sorption (water uptake)", "assay_type": "physicochemical", "method": "(§1) The amount of water taken up was calculated at about 0.60 wt % at 90% RH. […] The amount of water associated with this salt was calculated at about 0.5 wt % by Karl Fischer analysis and correlates with TGA and GVS analysis.\nMoisture sorption isotherms were collected in a VTI SGA-100 Symmetric Vapor Analyzer using approximately 10 mg of sample. The sample was dried at 60° C. until the loss rate of 0.0005 wt %/min was obtained for 10 minutes. The sample was tested at 25° C. and 3 or 4, 5, 15, 25, 35, 45, 50, 65, 75, 85, and 95% RH. Equilibration at each RH was reached when the rate of 0.0003 wt %/min for 35 minutes was achieved or a maximum of 600 minutes."}, "[6]": {"assay": "DSC/TGA thermal stability", "assay_type": "physicochemical", "method": "as §1\nThe TGA measurements were performed in a TA Instruments™ model Q500 or 2950, employing an open pan setup. The sample (about 10-30 mg) was placed in a platinum pan previously tared. The weight of the sample was measured accurately and recorded to a thousand of a milligram by the instrument. The furnace was purged with nitrogen gas at 100mL/min. Data were collected between room temperature and 300° C. at 10° C./min heating rate.\nDSC measurements were performed in a TA Instruments™ model Q2000, Q1000 or 2920, employing an open pan setup. The sample (about 2-6 mg) was weighed in an aluminum pan and recorded accurately recorded to a hundredth of a milligram, and transferred to the DSC. The instrument was purged with nitrogen gas at 50 mL/min. Data were collected between room temperature and 300° C. at 10° C./min heating rate. The plot was made with the endothermic peaks pointing down."}, "[7]": {"assay": "Karl Fischer water analysis", "assay_type": "physicochemical", "conditions": "correlates with TGA and GVS", "method": "as §1"}, "physchem": {"assay": "physchem", "conditions": "water, thermodynamic from solid"}}, "data": [{"compound": "Fumarate", "values": [{"measurement": "other data relating to the free base and each salt (salt formation, crystallinity, hygroscopicity, remarks)", "setting": "[1]", "result": "Crystalline Salt, low solubility"}]}, {"compound": "O=S(=O)(O)O", "note": "[Sulfate]", "values": [{"measurement": "other data relating to the free base and each salt (salt formation, crystallinity, hygroscopicity, remarks)", "setting": "[1]", "result": "Crystalline salt, low solubility"}]}, {"compound": "COc1cc2nccc(Oc3ccc(NC(=O)C4(C(=O)Nc5ccc(F)cc5)CC4)cc3)c2cc1OC.O=C(O)C[C@H](O)C(=O)O", "note": "[Compound (I), N-(4-{[6,7-bis(methyloxy)quinolin-4-yl]oxy}phenyl)-N′-(4-fluorophenyl)cyclopropane-1,1-dicarboxamide, (L) Malate Salt]", "values": [{"measurement": "change in assay, purity, moisture and dissolution", "setting": "[2]; 25° C./60% relative humidity (RH)", "result": "no change in assay, purity, moisture and dissolution"}, {"measurement": "change in assay, purity, moisture and dissolution", "setting": "[2]; 40° C./60% RH", "result": "no change in assay, purity, moisture and dissolution"}, {"measurement": "solubility (in words)", "setting": "[3]", "result": "sufficient solubility for use in a pharmaceutical composition"}, {"measurement": "Solubility", "setting": "[3]", "result": 59, "unit": "µg/mL"}, {"measurement": "solid state phase and degree of crystallinity", "setting": "[4]; 75% RH at 40° C. for 1 week", "result": "remained unchanged"}, {"measurement": "uptake of water, reversibility", "setting": "[5]", "result": "reversible with a slight hysteresis"}, {"measurement": "amount of water taken up", "setting": "[5]; at 90% RH", "result": "about 0.60 wt %"}, {"measurement": "solvent losses (DSC/TGA)", "setting": "[6]", "result": "No solvent losses were observed"}, {"measurement": "stable up to (DSC/TGA)", "setting": "[6]", "result": "up to 185 °C"}, {"measurement": "amount of water associated with the salt", "setting": "[7]", "result": "about 0.5 wt %"}]}, {"compound": "COc1cc2nccc(Oc3ccc(NC(=O)C4(C(=O)Nc5ccc(F)cc5)CC4)cc3)c2cc1OC", "note": "[Free base, N-(4-{[6,7-bis(methyloxy)quinolin-4-yl]oxy}phenyl)-N′-(4-fluorophenyl)cyclopropane-1,1-dicarboxamide]", "values": [{"measurement": "Solubility", "setting": "physchem", "result": "< 1", "unit": "µg/mL"}, {"measurement": "other data relating to the free base and each salt (salt formation, crystallinity, hygroscopicity, remarks)", "setting": "[1]", "result": "very low solubility"}]}, {"compound": "Benzoate", "values": [{"measurement": "other data relating to the free base and each salt (salt formation, crystallinity, hygroscopicity, remarks)", "setting": "[1]", "result": "no salt formation; mixture of free base and acid"}]}, {"compound": "Phosphate", "values": [{"measurement": "Solubility", "setting": "[3]", "result": 26, "unit": "µg/mL"}, {"measurement": "other data relating to the free base and each salt (salt formation, crystallinity, hygroscopicity, remarks)", "setting": "[1]", "result": "Crystalline but Hygroscopic."}, {"measurement": "weight gain due to absorption of H2O", "setting": "[5]; highest among the salts tested", "result": 8, "unit": "%"}]}, {"compound": "C1=Cc2cccc(OC[C@H]3CNCCO3)c2C1.O=S(=O)(O)c1ccccc1", "note": "[Benzenesulfonate]", "values": [{"measurement": "other data relating to the free base and each salt (salt formation, crystallinity, hygroscopicity, remarks)", "setting": "[1]", "result": "Crystalline Salt; possible sulfonic acid formation"}]}, {"compound": "Cl", "note": "[Chloride]", "values": [{"measurement": "moisture sensitivity, phase", "setting": "[4]; high humidity (75% humidity) and high temperature (40° C.)", "result": "undesirable moisture sensitivity, changing phase"}, {"measurement": "other data relating to the free base and each salt (salt formation, crystallinity, hygroscopicity, remarks)", "setting": "[1]", "result": "Crystalline but Hygroscopic; possible hydrate"}]}, {"compound": "CC(=O)O", "note": "[Acetate]", "values": [{"measurement": "other data relating to the free base and each salt (salt formation, crystallinity, hygroscopicity, remarks)", "setting": "[1]", "result": "no salt formation; mixture of free base and acid"}]}, {"compound": "Tosylate", "values": [{"measurement": "Solubility", "setting": "[3]", "result": 7, "unit": "µg/mL"}, {"measurement": "other data relating to the free base and each salt (salt formation, crystallinity, hygroscopicity, remarks)", "setting": "[1]", "result": "Crystalline salt, low solubility"}]}, {"compound": "L-Lactate", "values": [{"measurement": "other data relating to the free base and each salt (salt formation, crystallinity, hygroscopicity, remarks)", "setting": "[1]", "result": "Amorphous, salt"}]}, {"compound": "Malonate", "values": [{"measurement": "other data relating to the free base and each salt (salt formation, crystallinity, hygroscopicity, remarks)", "setting": "[1]", "result": "Crystalline salt, low solubility"}]}]}
